Data from paper PMC7010297, “How the initiating ribosome copes with ppGpp to translate mRNAs” (PLoS Biology, 2020).
Values joined by “and” are separate entries in the source; they are usually repeats but may differ in a detail not shown here. Equal entries are not always repeated. Where two headings read alike, the source gives them in different places.

Legend:
[1] = biological target: T1, 30S IC (30S-bound IF2, Bpy-tRNAi) (Escherichia coli, UniProt P0A705); experiment: 30S IC formation measured by MST at increasing concentrations of IF2 with guanosine nucleotides; type: binding; conditions: Fig 2A
T1 construct: 6xHis (N); made in house
T1 sequence (P0A705 whole entry, looked up): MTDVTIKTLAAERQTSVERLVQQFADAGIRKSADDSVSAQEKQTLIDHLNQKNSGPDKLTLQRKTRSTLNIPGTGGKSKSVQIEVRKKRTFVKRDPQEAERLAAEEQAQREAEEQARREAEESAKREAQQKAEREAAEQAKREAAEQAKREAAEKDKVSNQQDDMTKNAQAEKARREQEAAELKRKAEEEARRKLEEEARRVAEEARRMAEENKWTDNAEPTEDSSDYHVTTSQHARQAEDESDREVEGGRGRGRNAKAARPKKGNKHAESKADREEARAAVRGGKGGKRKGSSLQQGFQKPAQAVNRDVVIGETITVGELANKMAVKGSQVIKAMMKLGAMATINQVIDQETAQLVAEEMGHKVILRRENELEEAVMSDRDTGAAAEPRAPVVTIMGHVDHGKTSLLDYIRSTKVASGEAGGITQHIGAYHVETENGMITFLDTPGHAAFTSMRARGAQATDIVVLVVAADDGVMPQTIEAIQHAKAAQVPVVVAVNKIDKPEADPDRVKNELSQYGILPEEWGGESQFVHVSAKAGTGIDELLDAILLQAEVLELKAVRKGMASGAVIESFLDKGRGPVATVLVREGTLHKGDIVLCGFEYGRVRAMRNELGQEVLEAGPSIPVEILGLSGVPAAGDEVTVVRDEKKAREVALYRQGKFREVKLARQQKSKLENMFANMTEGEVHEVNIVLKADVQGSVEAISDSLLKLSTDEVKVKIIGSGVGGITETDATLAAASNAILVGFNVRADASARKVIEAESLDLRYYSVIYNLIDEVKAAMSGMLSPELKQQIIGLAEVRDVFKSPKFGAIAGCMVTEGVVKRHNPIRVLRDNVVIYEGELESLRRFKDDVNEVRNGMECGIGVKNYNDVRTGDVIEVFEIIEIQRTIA
Text: To monitor the interaction of initiator tRNA and 30S ribosomal subunits, we used Microscale Thermophoresis (MST) with a fluorescently labelled initiator tRNA (Bpy-tRNAi) (Fig 1B). MST allows to measure fluorescence in a constrained space. Changes on the readout derive from molecular drifts resulting from small thermal equilibrium perturbations. Upon equilibrium perturbations, the patterns of Bpy-tRNAi migration away from the observation space are related to bound and unbound states (Fig 1B). […] On the contrary, a decrease in thermophoresis indicated the dissociation of Bpy-tRNAi. The relation between fluorescence measured at both equilibriums (Ff to Fi, after and prior to the perturbation, respectively) as a function of ligand concentration allowed to determine dissociation constants of the interaction (Fig 1C).
(§1) Continuous lines indicate nonlinear regression fittings with a quadratic equation. Three measurements were performed; mean and standard deviation are plotted (S1 Data). (B) as (A) to measure the concentration dependence for each tested guanosine nucleotide at constant IF2 (1 μM). […] Continuous lines show best fits using exponential functions. (D) Formation of 70S IC as measured by Bpy-tRNAi accommodation in the P site of the ribosome; 0.1 μM 30S ICs were formed with Bpy-tRNAi and rapidly mixed with 0.3 μM 50S subunits on a stopped-flow apparatus as described in [14]. Colors are as in (C). Continuous lines show best fits using an exponential function for a single reaction step. Each stopped-flow trace results from the mean of 5 to 7 replicates.

30S-bound IF2 (30S IC) = biological target: T2, 30S-bound IF2 (30S IC) (Escherichia coli, UniProt P0A705); experiment: ppGpp (or GDP) to GTP competitive assay for 30S IC formation by MST; type: binding
T2 construct: 6xHis (N); made in house
T2 sequence (P0A705 whole entry, looked up): as above
Procedure: MST was calculated from the respective fluorescence time dependencies (S3 Fig). […] Symbols as in (B). […] Continuous lines indicate nonlinear regression fittings with quadratic (B and E) or same-site competition (G) functions. Three measurements were performed; mean and standard deviations are plotted (S1 Data).
[…] Symbols are as indicated, 3 measurements were performed, and mean and standard deviation are plotted (S1 Data). Continuous lines show nonlinear regression fittings with a same-site inhibition model. […] (PDF) Click here for additional data file.

[2] = biological target: T3, 70S pre-IC (50S joining to 30S IC) (Escherichia coli, UniProt P0A705); experiment: 70S pre-IC formation by light scattering, stopped-flow; type: biochemical; parameters: K1, best-fit value / k2, best-fit value: unit not given here; conditions: for A0, best-fit value / K1, best-fit value / k2, best-fit value: fit Y=A0+A1*exp(-K1*x)+k2*x; for kfast (s-1) Avg: light scattering
T3 construct: 6xHis (N); made in house
T3 sequence (P0A705 whole entry, looked up): as above
Procedure: as §1
(§2) (A) Scheme of 70S IC formation. […] Time traces were analyzed by nonlinear regression with exponential terms. […] Formation of 70S IC, as measured by Bpy-tRNAi accommodation in the absence (F) or presence of 200 μM ppGpp (G). Time traces were analyzed by nonlinear regression with one exponential term. […] Continuous lines show best fits using an exponential function for a single reaction step. All time traces are mean values of 5 to 10 replicates. Bar graphs show mean and standard errors (error bars) derived from the nonlinear regression fitting (D,E,H,I) (S1 Data).
(§3) To measure 70S pre-IC formation, a SX-20 stopped-flow instrument (Applied Photophysics, Leatherhead, UK) was set up for LS recording with an excitation wavelength of 430 nm. Scattered light was measured at an angle of 90° without a filter. Pseudo first-order conditions were approximated by using ≥3-fold excess of 50S subunits over 30S ICs; 0.2 μM 30S ICs were rapidly mixed in the instrument with 0.6 μM 50S at 25 °C. Bpy-tRNAi accommodation was measured essentially as described elsewhere. Briefly, 0.2 μM 30S ICs were formed using Bpy-tRNAi and rapidly mixed with 0.6 μM 50S at 25 °C. Fluorescence was excited at 470 nm and measured after a 495-nm longpass filter. Individual traces (6–11 traces) were averaged, and the resulting kinetic curve was approximated by single (F = A0 + A1*exp (-kapp1*t)) or double (F = A0 + A1*exp (-kapp1*t) + A2*exp (-kapp2*t)) exponential fit using Graphpad Prism 6.0 software (GraphPad, San Diego, California).

70S IC = biological target: T4, 70S IC (Escherichia coli, UniProt P0A705); experiment: 70S IC formation by Bpy-tRNAi accommodation, stopped-flow; type: biochemical; parameters: K1, best-fit value: unit not given here; conditions: for A0, best-fit value / A1, best-fit value / K1, best-fit value / k2, best-fit value: fit Y=A0+A1*exp(-K1*x)+k2*x; for kfast (s-1) Avg: fluorescence
T4 construct: 6xHis (N); made in house
T4 sequence (P0A705 whole entry, looked up): as above
Procedure: as §1, §2, §3

Nc1nc2c(ncn2[C@@H]2O[C@H](COP(=O)(O)OP(=O)(O)O)[C@@H](O)[C@H]2O)c(=O)[nH]1 [GDP, guanosine diphosphate]
MST Average ([1]; IF2 0.16 µM): 936.66 a.u.
MST Replicates (a.u.) ([1]; IF2 0.16 µM, in the presence of the nucleotide): 938.79 a.u. and 935.06 a.u. and 936.14 a.u.
MST Average ([1]; IF2 0.31 µM): 942.67 a.u.
MST Replicates (a.u.) ([1]; IF2 0.31 µM): 943.24 a.u. and 941.18 a.u. and 943.58 a.u.
MST Average ([1]; IF2 0.63 µM): 949.91 a.u.
MST Replicates (a.u.) ([1]; IF2 0.63 µM): 951.36 a.u. and 947.80 a.u. and 950.56 a.u.
MST Average ([1]; IF2 1.25 µM): 961.16 a.u.
MST Replicates (a.u.) ([1]; IF2 1.25 µM): 962.03 a.u. and 959.55 a.u. and 961.91 a.u.
MST Average ([1]; IF2 2.50 µM): 966.51 a.u.
MST Replicates (a.u.) ([1]; IF2 2.50 µM): 967.31 a.u. and 965.43 a.u. and 966.81 a.u.
MST Average ([1]; IF2 5.00 µM): 968.29 a.u.
MST Replicates (a.u.) ([1]; IF2 5.00 µM): 968.72 a.u. and 967.06 a.u. and 969.08 a.u.
IC50 (30S-bound IF2 (30S IC); mRNA mInfA, read-out: IC50 Average): 126 µM
IC50 (30S-bound IF2 (30S IC); mRNA mInfA, read-out: IC50 Replicates): 124 µM and 128 µM and 126 µM
IC50 (30S-bound IF2 (30S IC); mRNA mMF1, read-out: IC50 Average): 38.6 µM
IC50 (30S-bound IF2 (30S IC); mRNA mMF1, read-out: IC50 Replicates): 37.5 µM and 39.6 µM and 38.8 µM
IC50 (30S-bound IF2 (30S IC); mRNA mTufA, read-out: IC50 Average): 173 µM
IC50 (30S-bound IF2 (30S IC); mRNA mTufA, read-out: IC50 Replicates): 168 µM and 176 µM (2×)
efficiency (amplitude) of 70S pre-IC formation ([2]; 0.2 mM nucleotide, no GTP): reduced efficiencies
rapid 70S pre-IC formation in the absence of GTP ([2]; 0.2 mM nucleotide, noncompetitive (S6 Fig)): some transitions
A0, best-fit value ([2]; mInfA): 1.03
K1, best-fit value ([2]; mInfA): 1.58
k2, best-fit value ([2]; mInfA): 0.0017 and 0.00169
A0, best-fit value ([2]; mMF1): 1.04
K1, best-fit value ([2]; mMF1): 2.79
k2, best-fit value ([2]; mMF1): 0.001
LS amplitude (a.u.) Avg ([2]; mRNA mInfA): 0.028 a.u.
kfast (s-1) Avg ([2]; mRNA mInfA): 1.58 s⁻¹
LS amplitude (a.u.) Avg ([2]; mRNA mMF1): 0.027 a.u.
kfast (s-1) Avg ([2]; mRNA mMF1): 2.79 s⁻¹
LS amplitude (a.u.) Avg ([2]; mRNA mTufA): 0.058 a.u.
kfast (s-1) Avg ([2]; mRNA mTufA): 3.39 s⁻¹
A0, best-fit value ([2]; mTufA): 1.07
K1, best-fit value ([2]; mTufA): 3.39
k2, best-fit value ([2]; mTufA): 0.0016 and 0.00162
efficiency (amplitude) of 70S IC formation (Bpy-tRNAi accommodation) (70S IC; 0.2 mM nucleotide, no GTP): reduced efficiencies
A0, best-fit value (70S IC; mInfA): 0.98
A1, best-fit value (70S IC; mInfA): 0.0231
K1, best-fit value (70S IC; mInfA): 1.28
k2, best-fit value (70S IC; mInfA): -0.00069
A0, best-fit value (70S IC; mMF1): 0.93
A1, best-fit value (70S IC; mMF1): 0.07
K1, best-fit value (70S IC; mMF1): 1.57
k2, best-fit value (70S IC; mMF1): -0.00092
Fluorescence Amplitude Avg (70S IC; mRNA mInfA): 0.023
kfast (s-1) Avg (70S IC; mRNA mInfA): 1.28 s⁻¹
Fluorescence Amplitude Avg (70S IC; mRNA mMF1): 0.067
kfast (s-1) Avg (70S IC; mRNA mMF1): 1.57 s⁻¹
Fluorescence Amplitude Avg (70S IC; mRNA mTufA): 0.062
kfast (s-1) Avg (70S IC; mRNA mTufA): 2.65 s⁻¹
A0, best-fit value (70S IC; mTufA): 0.94
A1, best-fit value (70S IC; mTufA): 0.06
K1, best-fit value (70S IC; mTufA): 2.65
k2, best-fit value (70S IC; mTufA): -0.00072
